Publication PMC9635925, “Biological screening of a unique drug library targeting MRGPRX2” (Frontiers in Immunology, 2022)
Residue numbers refer to the chain shown, from its start. Structures can show the parent of a compound that is named as a salt.

How the values were obtained:
[1] = biological target: T1, MRGPRX2-WT (wild-type MRGPRX2 receptor) (Homo sapiens, UniProt Q96LB1); test: Primary HTS, Ca2+ mobilization (fluorescence ratio, B-score) in HEK293-Gα15 cells stably expressing wild-type MRGPRX2; type: cell-based; details: 10 μM compound
T1 construct: expressed in transfected cells
T1 sequence (Q96LB1 1-330): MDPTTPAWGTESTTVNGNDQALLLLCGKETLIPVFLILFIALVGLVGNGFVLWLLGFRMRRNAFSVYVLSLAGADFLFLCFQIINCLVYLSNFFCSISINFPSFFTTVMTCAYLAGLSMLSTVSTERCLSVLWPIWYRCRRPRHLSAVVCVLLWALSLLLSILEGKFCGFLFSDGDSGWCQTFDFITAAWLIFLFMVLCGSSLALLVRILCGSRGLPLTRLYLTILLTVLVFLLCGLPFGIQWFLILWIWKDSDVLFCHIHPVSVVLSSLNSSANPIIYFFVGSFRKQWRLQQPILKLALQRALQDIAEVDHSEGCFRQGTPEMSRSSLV
Procedure: (§1) We performed an experimental HTS on the Johns Hopkins Drug Library, which includes 1,811 (57%) FDA-approved drugs among 3,456 total compounds (28% of all known drugs worldwide) ([15]). We performed the HTS at the Johns Hopkins University ChemBioCORE Facility and employed HEK293-Gα15 cell lines that stably expressed MRGPRX2 protein.
(§2) We utilized 10 μM compounds (each compound was tested in triplicate) and calculated the compound effect using the signal-to-background fluorescence ratio (see Supplementary Methods).
(§3) In the HTS, we determined MRGPRX2 activation by a Ca^2+ mobilization assay that recorded a fluorescence change by utilizing a Functional Drug Screening System (FDSS 6000; Hamamatsu); we evaluated the compound effect using the calculated fluorescence ratio. We further applied the B-score normalization, which provided robust corrections for variation in fluorescence ratio ([22]).
(§4) We performed an experimental high-throughput screening (HTS) on the Johns Hopkins Drug Library (JHDL), which includes 1,811 (57%) FDA-approved drugs among 3,456 total compounds (28% of all known drugs worldwide). The remaining compounds in JHDL are catalogued in one or more of the resources below: British Approved Names (BAN); Dénominations Communes Françaises (DCF); International Nonproprietary Names (INN); Japanese Adopted Names (JAN); MI (Merck Index); National Formulary drug name (NF); and United States Accepted Names (USAN). The JHU drug library is stocked in 96 well plates at 10 mM in 100% DMSO and stored at -80 °C. We used a final concentration of 10 uM for each compound and DMSO concentration of 0.1% (tested in triplicate). […] We evaluated compound effect using the calculated fluorescence ratio. We further calculated B-scores, which are a relative potency score similar to Z scores in that they are the ratio of an adjusted raw value in the numerator to a measure of variability in the denominator.

[2] = biological target: T2, MRGPRX2-MUT (MRGPRX2 N62S mutation) (Homo sapiens, UniProt Q96LB1, N62S); test: Primary HTS, Ca2+ mobilization (fluorescence ratio, B-score) in HEK293-Gα15 cells stably expressing the MRGPRX2 N62S mutation; type: cell-based; details: for B-scores (MUT): 10 μM compound, MRGPRX2-MUT (N62S) cells; for Change of B-scores (%): 10 μM
T2 construct: expressed in transfected cells
T2 sequence (Q96LB1 1-330 N62S): T1 sequence (Q96LB1 1-330) with N62S
Procedure: as §1, §2, §3, §4

[3] = MRGPRX2-MUT versus MRGPRX2-WT cells, Supplementary Table 2
[4] = MRGPRX2-MUT in comparison to MRGPRX2-WT cells, Supplementary Table 1
[5] = MRGPRX2-MUT in comparison to MRGPRX2-WT cells, Table 1
[6] = Supplementary Table 2, listed as Dextromethorphan (Delsym)

Compound	B-scores (WT) ([1]; Supplementary Table 2)	B-scores (MUT) ([2]; Supplementary Table 2)	Change of B-scores (%) [2, 3] [%]	B-scores (WT) ([1]; Supplementary Table 1)	B-scores (WT) ([1]; Table 1)	B-scores (MUT) ([2]; Supplementary Table 1)	B-scores (MUT) ([2]; Table 1)	Change of B-scores (%) [2, 4] [%]	Change of B-scores (%) [2, 5] [%]	B-scores (WT) [1, 6]	B-scores (MUT) [2, 6]	Change of B-scores (%) ([2]; MRGPRX2-MUT versus MRGPRX2-WT cells, Supplementary Table 2, listed as Dextromethorphan (Delsym))
O=C(O)c1cn(C2CC2)c2cc(N3CCNCC3)c(F)cc2c1=O [Ciprofloxacin]	7.33	1.91	-74									
Cl.NC1CCN(c2c(F)cc3c(=O)c(C(=O)O)cn(C4CC4)c3c2Cl)C1 (centres unmarked) [Clinafoxacin Hydrochloride]				26.08	26.08	0.92	0.92	-96.48	-96.48			
CN(C)CCCN1c2ccccc2CCc2ccc(Cl)cc21 [Clomipramine Hydrochloride]	30.29	2.17	-92.83	30.29	30.29	2.17	2.17	-92.83	-92.83			
C=C[C@@]1(C)CC(=O)[C@]2(O)[C@@]3(C)[C@@H](O)CCC(C)(C)[C@@H]3[C@H](O)[C@H](OC(C)=O)[C@@]2(C)O1 [Colforsin]				21.10		0.76		-96.40				
C[C@@H](Oc1cc(-c2cnn(C3CCNCC3)c2)cnc1N)c1c(Cl)ccc(F)c1Cl [Crizotinib]				22.06	22.06		-0.44	-101.99	-101.99			
CN(C)CCC=C1c2ccccc2C=Cc2ccccc21 [Cyclobenzaprine Hydrochloride]	16.49	1.22	-92.62									
CN1CCC(=C2c3ccccc3C=Cc3ccccc32)CC1 [Cyproheptadine Hydrochloride]				41.66	41.66	2.29	2.29	-94.50	-94.50			
CO[C@@H](C(=O)N1Cc2n[nH]c(NC(=O)c3ccc(N4CCN(C)CC4)cc3)c2C1)c1ccccc1 [Danusertib]				20.37	20.37	0.61	0.61	-97.00	-97.00			
COc1cccc2c1C(=O)c1c(O)c3c(c(O)c1C2=O)C[C@@](O)(C(C)=O)C[C@@H]3O[C@H]1C[C@H](N)[C@H](O)[C@H](C)O1 [Daunorubicin]	8.85	37.13	319.41									
CNCCCN1c2ccccc2CCc2ccccc21 [Desipramine Hydrochloride]	7.48	-2.96	-139.62									
CNCCCN1c2ccccc2CCc2ccccc21 [Desipramine]	13.96	1.19	-91.45									
CN(C)CC[C@@H](c1ccc(Cl)cc1)c1ccccn1 [Dexchlorpheniramine Maleate]	24.82	0.56	-97.76	24.82	24.82	0.56	0.56	-97.76	-97.76			
Br.COc1ccc2c(c1)[C@]13CCCC[C@@H]1[C@H](C2)N(C)CC3.O [Dextromethorphan Hydrobromide Monohydrate]				23.02		54.88		138.39				
COc1ccc2c(c1)[C@]13CCCC[C@@H]1[C@H](C2)N(C)CC3 [Dextromethorphan hydrobromide]	23.02	54.88	138.39	38.47		84.34		119.23		38.47	84.34	119.23
CN1CC[C@@]23CCCC[C@@H]2[C@@H]1Cc1ccc(O)cc13 [Dextrorphan]	31.94	68.33	113.94									
CN(C)CCN1C(=O)c2ccccc2N(C)c2ccccc21 [Dibenzepin]				25.48	25.48		-1.62	-106.37	-106.37			
CN1CCN(c2cc3c(cc2F)c(=O)c(C(=O)O)cn3-c2ccc(F)cc2)CC1 [Difloxacin Hydrochloride]	44.81	-1.54	-103.45	44.81	44.81	1.54	-1.54	-103.45	-103.45			
COc1ccc([C@@H]2Sc3ccccc3N(CCN(C)C)C(=O)[C@@H]2OC(C)=O)cc1 [Diltiazem Hydrochloride]				22.99				-104.18				
CCCCC[C@H](O)/C=C/[C@H]1[C@H](O)CC(=O)[C@@H]1C/C=C\CCCC(=O)O [Dinoprostone (Prostaglandin E2)]				40.59		17.30		-57.38				
CN(C)CCOC(c1ccccc1)c1ccccc1 [Diphenhydramine Hydrochloride]	10.26	0.66	-93.55									
CN(C)CCC=C1c2ccccc2COc2ccccc21 [Doxepin Hydrochloride]	12.95	1.85	-85.71									
CNCC[C@H](Oc1cccc2ccccc12)c1cccs1 [Duloxetine Hydrochloride]				44.22		0.64		-98.55				
CNC[C@H](O)c1ccc(O)c(O)c1 [Epinephrine Bitartrate]	25.6	11.72	-54.24	25.60		11.72		-54.24				
CNC[C@H](O)c1ccc(O)c(O)c1 [Epinephrine]	17.52	8.28	-52.73									
CCCCC[C@H](O)/C=C/[C@@H]1[C@H]2C/C(=C/CCCC(=O)O)O[C@H]2C[C@H]1O [Epoprostenol]				27.44		10.83		-60.51				
CC(Cc1ccc(O)cc1)NCC(O)c1cc(O)cc(O)c1 (centres unmarked) [Fenoterol Hydrobromide]	20.31	-0.03	-100.16	20.31				-100.16				
CC(Cc1ccc(O)cc1)NCC(O)c1cc(O)cc(O)c1 (centres unmarked) [Fenoterol]	23.48	13.78	-41.33	23.48		13.78		-41.33				
